Measured values as given in ChEMBL document CHEMBL1287715, “Discovery of N-benzyl-N'-(4-pipyridinyl)urea CCR5 antagonists as anti-HIV-1 agents (I): optimization of the amine portion” (Bioorg Med Chem Lett, 2010).

Experiments:
[1] = Cytotoxicity against peripheral blood lymphocyte cells upto 1 uM by celltiter glo assay; type: cell-based; conditions: human
HOS = assay: Cytotoxicity against HOS cells upto 1 uM by celltiter glo assay; type: cell-based; conditions: human

SMILES | Activity [1] | Activity (HOS)
C=CCN(C(=O)NCc1ccc(C(N)=O)cc1)C1CCN(CCC2(c3cccc(F)c3)CCN(C(=O)c3cc(S(=O)(=O)NC(C)(C)C)c(F)cc3Cl)CC2)CC1 | Non-toxic | Non-toxic
C=CCN(C(=O)Cc1ccc(S(C)(=O)=O)cc1)C1CCN(CCC2(c3cccc(F)c3)CCN(C(=O)c3cc(S(=O)(=O)NC(C)(C)C)c(F)cc3Cl)CC2)CC1 | Non-toxic | Non-toxic
C=CCN(C(=O)Nc1ccc(S(C)(=O)=O)cc1)C1CCN(CCC2(c3cccc(F)c3)CCN(C(=O)c3cc(S(=O)(=O)NC(C)(C)C)c(F)cc3Cl)CC2)CC1 | Non-toxic | Non-toxic
C=CCN(C(=O)Cc1ccc(OC(F)(F)F)cc1)C1CCN(CCC2(c3cccc(F)c3)CCN(C(=O)c3cc(S(=O)(=O)NC(C)(C)C)c(F)cc3Cl)CC2)CC1 | Non-toxic | Non-toxic
C=CCN(C(=O)Nc1ccc(C#N)cc1)C1CCN(CCC2(c3cccc(F)c3)CCN(C(=O)c3cc(S(=O)(=O)NC(C)(C)C)c(F)cc3Cl)CC2)CC1 | Non-toxic | Non-toxic
C=CCN(C(=O)NCc1ccc(C(F)(F)F)cc1)C1CCN(CCC2(c3cccc(F)c3)CCN(C(=O)c3cc(S(=O)(=O)NC(C)(C)C)c(F)cc3Cl)CC2)CC1 | Non-toxic | Non-toxic
C=CCN(C(=O)NCc1ccc(F)cc1)C1CCN(CCC2(c3cccc(F)c3)CCN(C(=O)c3cc(S(=O)(=O)NC(C)(C)C)c(F)cc3Cl)CC2)CC1 | Non-toxic | Non-toxic
C=CCN(C(=O)Cc1ccc(C(N)=O)cc1)C1CCN(CCC2(c3cccc(F)c3)CCN(C(=O)c3cc(S(=O)(=O)NC(C)(C)C)c(F)cc3Cl)CC2)CC1 | Non-toxic | Non-toxic
C=CCN(C(=O)OCc1ccc(S(C)(=O)=O)cc1)C1CCN(CCC2(c3cccc(F)c3)CCN(C(=O)c3cc(S(=O)(=O)NC(C)(C)C)c(F)cc3Cl)CC2)CC1 | Non-toxic | Non-toxic
C=CCN(C(=O)Nc1ccc(F)cc1)C1CCN(CCC2(c3cccc(F)c3)CCN(C(=O)c3cc(S(=O)(=O)NC(C)(C)C)c(F)cc3Cl)CC2)CC1 | Non-toxic | Non-toxic
C=CCN(C(=O)NCc1ccc(C#N)cc1)C1CCN(CCC2(c3cccc(F)c3)CCN(C(=O)c3cc(S(=O)(=O)NC(C)(C)C)c(F)cc3Cl)CC2)CC1 | Non-toxic | Non-toxic
C=CCN(C(=O)OCc1ccc(C(F)(F)F)cc1)C1CCN(CCC2(c3cccc(F)c3)CCN(C(=O)c3cc(S(=O)(=O)NC(C)(C)C)c(F)cc3Cl)CC2)CC1 | Non-toxic | Non-toxic
C=CCN(C(=O)Cc1ccc(C(F)(F)F)cc1)C1CCN(CCC2(c3cccc(F)c3)CCN(C(=O)c3cc(S(=O)(=O)NC(C)(C)C)c(F)cc3Cl)CC2)CC1 | Non-toxic | Non-toxic
C=CCN(C(=O)OCc1ccc(F)cc1)C1CCN(CCC2(c3cccc(F)c3)CCN(C(=O)c3cc(S(=O)(=O)NC(C)(C)C)c(F)cc3Cl)CC2)CC1 | Non-toxic | Non-toxic
C=CCN(C(=O)Nc1ccc(C(F)(F)F)cc1)C1CCN(CCC2(c3cccc(F)c3)CCN(C(=O)c3cc(S(=O)(=O)NC(C)(C)C)c(F)cc3Cl)CC2)CC1 | Non-toxic | Non-toxic
C=CCN(C(=O)Cc1ccc(F)cc1)C1CCN(CCC2(c3cccc(F)c3)CCN(C(=O)c3cc(S(=O)(=O)NC(C)(C)C)c(F)cc3Cl)CC2)CC1 | Non-toxic | Non-toxic
C=CCN(C(=O)OCc1ccc(C#N)cc1)C1CCN(CCC2(c3cccc(F)c3)CCN(C(=O)c3cc(S(=O)(=O)NC(C)(C)C)c(F)cc3Cl)CC2)CC1 | Non-toxic | Non-toxic
C=CCN(C(=O)NCc1ccc(C(=O)OC)cc1)C1CCN(CCC2(c3cccc(F)c3)CCN(C(=O)c3cc(S(=O)(=O)NC(C)(C)C)c(F)cc3Cl)CC2)CC1 | Non-toxic | Non-toxic
C=CCN(C(=O)OCc1ccc(OC(F)(F)F)cc1)C1CCN(CCC2(c3cccc(F)c3)CCN(C(=O)c3cc(S(=O)(=O)NC(C)(C)C)c(F)cc3Cl)CC2)CC1 | Non-toxic | Non-toxic
C=CCN(C(=O)Nc1ccc(OC(C)=O)cc1)C1CCN(CCC2(c3cccc(F)c3)CCN(C(=O)c3cc(S(=O)(=O)NC(C)(C)C)c(F)cc3Cl)CC2)CC1 | Non-toxic | Non-toxic
C=CCN(C(=O)OCc1ccc(C(=O)OC)cc1)C1CCN(CCC2(c3cccc(F)c3)CCN(C(=O)c3cc(S(=O)(=O)NC(C)(C)C)c(F)cc3Cl)CC2)CC1 | Non-toxic | Non-toxic
